The nature of experiment [1]: non-specific 3'UTR reporter inhibition in Clone20-Shn3RL – cell-based, Renilla luciferase, cherry-picked, counter-screen for Shn3 inhibitor project, dose response (AID 624133). It counts as functional. Background: A counterscreen serves to expose hits that act by an unwanted route or on another target.
Experiment [2] can be described thus: loss of viability in HepG2 cells – cell-based, CellTiter-Glo, cherry-picked, cytotoxicity control for Shn3 inhibitor project, dose response (AID 624134). The format is functional. Background: ATP-based viability assays read luminescence as a measure of living cells.
In experiment [3] the target is T1, Fatty acid synthase (Homo sapiens, UniProt P49327). The experiment is described as follows: inhibition of human FAS-TE enzyme activity – biochemical, endpoint fluorescence intensity, uHTS hits, dose response (AID 624327).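 Note: fluorescence from hydrolysis of an O-methyl fluorescein acyl ester substrate by the enzyme.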 It counts as functional.
The target in another experiment is Beta Lactamase (Pseudomonas aeruginosa, UniProt Q932Y6). Kind of experiment: BLA reporter interference, concentration series – BLA reporter cells, FRET fluorescence, artefact control for NOD2-RIPK2 interaction inhibitor project, dose response (AID 651552). The format is functional, cell-based.
Experiment [4] addresses Heat shock protein HSP 90-alpha (Homo sapiens, UniProt P07900). The format is functional, organism-based.
Experiment [5] relates to Streptococcus sp. 'group A'. Kind of experiment: Streptococcus pyogenes SK(-)GAS viability under kanamycin – luminescence, BacTiterGlo, confirmation, counter-screen for streptokinase expression inhibitor project, dose response (AID 1900). The format is functional, organism-based.
A short description of experiment [6]: Fluorescence-based cell-based high throughput dose response assay for inhibitors of the interaction of nucleotide-binding oligomerization domain containing 2 (NOD2) and the receptor-interacting serine-threonine kinase 2 (RIPK2). It counts as functional. To be noted: Homo sapiens.
A short description of experiment [7]: reduction of Shn3 3'UTR-driven luciferase in osteoblasts – cell-based, Clone20 osteoblasts, firefly luciferase, cherry-picked, dose response (AID 624132).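 Note: firefly luciferase luminescence from reporter carrying the Shn3 3'UTR in osteoblasts.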 The format is functional.
Experiment [8] addresses T1, Fatty acid synthase. Kind of experiment: inhibition of human FAS-TE enzyme activity – biochemical, kinetic fluorescence intensity, dose response (AID 624326).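 Note: rate of fluorescence rise from hydrolysis of a fluorogenic O-methyl fluorescein ester substrate.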 The format is functional.
Experiment [9] concerns Streptococcus. Kind of experiment: Luminescence Microorganism-Based Dose Response Follow up to Identify Compounds Cytotoxic to Streptococcus. [Related pubchem assays: 1677 (Project Summary), 1915, 1914, 1902 (Retest at Dose), 1900 (Counter Screen), 1662 (Primary HTS)]. It counts as functional, organism-based.
Another experiment concerns the target T2, Streptokinase A (Streptococcus pyogenes serotype M1, UniProt P10520).
T2 sequence (P10520 whole entry): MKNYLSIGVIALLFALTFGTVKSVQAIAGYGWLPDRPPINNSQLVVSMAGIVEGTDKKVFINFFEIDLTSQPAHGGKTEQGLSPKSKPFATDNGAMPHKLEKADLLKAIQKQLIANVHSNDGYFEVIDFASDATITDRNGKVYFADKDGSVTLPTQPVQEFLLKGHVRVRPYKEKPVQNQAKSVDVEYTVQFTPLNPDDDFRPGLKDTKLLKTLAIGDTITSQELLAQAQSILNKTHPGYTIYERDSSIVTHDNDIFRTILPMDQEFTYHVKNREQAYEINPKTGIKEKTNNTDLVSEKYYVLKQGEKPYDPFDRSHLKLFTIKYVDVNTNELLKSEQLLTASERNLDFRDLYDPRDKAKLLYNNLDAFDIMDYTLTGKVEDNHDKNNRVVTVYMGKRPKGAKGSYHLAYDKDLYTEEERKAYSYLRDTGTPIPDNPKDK
The experiment is described as follows: viability-normalized secreted streptokinase activity reduction – plasminogen activation absorbance, OD405, dose response (AID 1914).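 Note: secreted streptokinase activity via plasminogen activation per viability signal from cell pellet.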 It counts as functional, Streptococcus pyogenes M1 GAS.

For experiment [10], the system named is Streptococcus. The experiment is described as follows: GAS UMAA2166 growth inhibition – luminescence, BacTiterGlo, counter-screen for streptokinase expression inhibitor project, dose response (AID 1915).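 Note: potency for reduction of bacterial viability or growth.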 It counts as functional, organism-based.
Experiment [11] concerns the target Neuropeptide Y receptor type 1 (Homo sapiens, UniProt P25929). Kind of experiment: Fluorescence-based counterscreen for agonists of NPY-Y2: cell-based high-throughput dose response assay for agonists of NPY-Y1. It counts as functional.
Experiment [12] deals with Neuropeptide Y receptor type 2 (Homo sapiens, UniProt P49146). Kind of experiment: Fluorescence-based cell-based high-throughput dose response assay for agonists of NPY-Y2. [Related pubchem assays: 1703 (Screening assay (CNGC inhibitors).), 1359 (Screening assay (NPY-Y2 potentiators or agonists).), 1304 (Screening assay (NPY-Y1 potentiators or agonists).), 1710 (Screening assay (NPY-Y2 agonists).), 1791 (Summary AID.)]. It counts as functional.

In a further experiment the test system is HEK293. The experiment is described as follows: Fluorescence-based counterscreen for potentiators or agonists of NPY-Y2: cell-based high-throughput dose response assay to identify inhibitors of cyclic nucleotide gated ion channel (CNGC) activity. In this assay, the parental HEK293 cell line transfected with a cyclic-nucleotide gated ion channel (CNGC)-based cAMP sensor is used to measure inhibition of isoproterenol-induced CNGC activity by test compound. It counts as functional. The settings on record: Homo sapiens.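 Note: stimulus is 1 µM isoproterenol at EC100 plus PDE inhibitor Ro 20-1724 at 25 µM.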

Another experiment concerns the target T3, Aminopeptidase N (Plasmodium falciparum FcB1/Columbia, UniProt O96935).
T3 sequence (O96935 whole entry): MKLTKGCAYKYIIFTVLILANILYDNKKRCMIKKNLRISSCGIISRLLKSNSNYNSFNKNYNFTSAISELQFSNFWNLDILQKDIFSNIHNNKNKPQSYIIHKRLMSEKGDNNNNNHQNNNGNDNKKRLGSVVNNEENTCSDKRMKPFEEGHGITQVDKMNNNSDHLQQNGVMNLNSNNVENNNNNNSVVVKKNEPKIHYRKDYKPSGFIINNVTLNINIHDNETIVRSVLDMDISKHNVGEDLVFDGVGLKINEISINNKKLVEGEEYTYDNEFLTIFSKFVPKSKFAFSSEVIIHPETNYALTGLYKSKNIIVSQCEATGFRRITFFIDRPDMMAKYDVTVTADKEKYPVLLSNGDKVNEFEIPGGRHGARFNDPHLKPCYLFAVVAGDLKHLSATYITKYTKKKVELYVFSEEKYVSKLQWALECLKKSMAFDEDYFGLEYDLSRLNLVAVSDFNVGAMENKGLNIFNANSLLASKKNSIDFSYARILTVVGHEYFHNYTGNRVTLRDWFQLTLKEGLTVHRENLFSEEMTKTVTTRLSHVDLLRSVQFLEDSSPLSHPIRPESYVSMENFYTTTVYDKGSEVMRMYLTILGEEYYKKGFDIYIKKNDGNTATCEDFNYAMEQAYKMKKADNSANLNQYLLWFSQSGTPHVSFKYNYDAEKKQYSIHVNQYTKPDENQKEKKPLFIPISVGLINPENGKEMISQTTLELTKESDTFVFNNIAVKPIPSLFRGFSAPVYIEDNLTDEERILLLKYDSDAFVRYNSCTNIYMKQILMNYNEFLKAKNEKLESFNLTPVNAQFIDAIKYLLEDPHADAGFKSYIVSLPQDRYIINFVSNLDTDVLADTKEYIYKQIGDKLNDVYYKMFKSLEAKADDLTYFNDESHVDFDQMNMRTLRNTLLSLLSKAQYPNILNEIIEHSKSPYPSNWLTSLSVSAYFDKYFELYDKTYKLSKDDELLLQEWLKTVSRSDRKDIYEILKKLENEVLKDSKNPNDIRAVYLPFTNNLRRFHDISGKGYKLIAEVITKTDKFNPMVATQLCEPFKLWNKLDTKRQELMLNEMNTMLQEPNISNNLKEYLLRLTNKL
The experiment is described as follows: malaria alanyl aminopeptidase activity blockers – biochemical, fluorogenic H-Leu-NHMec substrate, 1536-well (AID 1445). Set-up: species or system Plasmodium falciparum 3D7, 3D7.

A short description of experiment [13]: luciferase reporter signal suppression in cells – H4 neuroglioma cells, luminescence, dose response (AID 1990). The format is functional, cell-based. Background: A reporter such as luciferase makes a cellular process visible.
The nature of experiment [14]: Luminescence Cell-Based Dose Response HTS to Identify Inhibitors of 5'UTR Stem-Loop Driven Prion Protein mRNA Translation in H4 Neuroglioblastoma Cells. [Related pubchem assays: 1827 (Project Summary), 1813 (Primary HTS)]. The format is functional.
The target of experiment [15] is G2/mitotic-specific cyclin-B1 (Homo sapiens, UniProt P14635). The experiment is described as follows: Counterscreen assay for inhibitors of Wee1 degradation: dose response cell-based assay to identify inhibitors of cyclin B degradation. [Related pubchem assays: 1410, 1321 ]. The format is functional.
Experiment [16] can be described thus: HIV-1 AD8 envelope cell-cell fusion blockers – cherry-pick, dose response (AID 652062).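 Note: luciferase signal from cell-cell fusion driven by HIV-1 clade B AD8 Env; potency is for inhibitors of fusion seen as a drop in luminescence.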 It counts as functional, cell-based.
The nature of experiment [17]: off-target signal loss in HeLa-CEM21 co-culture – HeLa F-luc CTL cells, cherry-picked, counter-screen for HIV-1 Env fusion inhibitor project, dose response (AID 652040).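 Note: potency for signal decrease marking cytotoxic or nonspecific inhibition.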 It counts as functional, cell-based.
A further experiment has as its target Wee1-like protein kinase (Homo sapiens, UniProt P30291). The experiment is described as follows: Dose Response Cell-based Assay for Inhibitors of Wee1 Degradation. [Related pubchem assays: 1410, 1321 ]. It counts as functional.
A short description of experiment [18]: alpha-synuclein stem-loop luciferase translation blockers – H4 neuroglioma cells, luminescence, confirmation (AID 1988). The format is functional, cell-based.
Experiment [19] in a line: blockers of HIV-1 ZM109 envelope-driven cell-cell fusion – HeLa effector, CEM target cells, luciferase, cherry-pick, dose response (AID 652058).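 Note: luciferase signal from HIV-1 Env mediated cell-cell fusion of effector and target cells.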 The format is functional, cell-based.
Experiment [20] is described as follows: blockers of HIV-1 envelope-mediated cell-cell fusion – cherry-pick, dose response (AID 652057). It counts as functional, cell-based.

Activity calls are given as the source filed them.

The results in this text go back to ChEMBL document CHEMBL1201862, “PubChem BioAssay data set” (2004).

T1 sequence (P49327 whole entry): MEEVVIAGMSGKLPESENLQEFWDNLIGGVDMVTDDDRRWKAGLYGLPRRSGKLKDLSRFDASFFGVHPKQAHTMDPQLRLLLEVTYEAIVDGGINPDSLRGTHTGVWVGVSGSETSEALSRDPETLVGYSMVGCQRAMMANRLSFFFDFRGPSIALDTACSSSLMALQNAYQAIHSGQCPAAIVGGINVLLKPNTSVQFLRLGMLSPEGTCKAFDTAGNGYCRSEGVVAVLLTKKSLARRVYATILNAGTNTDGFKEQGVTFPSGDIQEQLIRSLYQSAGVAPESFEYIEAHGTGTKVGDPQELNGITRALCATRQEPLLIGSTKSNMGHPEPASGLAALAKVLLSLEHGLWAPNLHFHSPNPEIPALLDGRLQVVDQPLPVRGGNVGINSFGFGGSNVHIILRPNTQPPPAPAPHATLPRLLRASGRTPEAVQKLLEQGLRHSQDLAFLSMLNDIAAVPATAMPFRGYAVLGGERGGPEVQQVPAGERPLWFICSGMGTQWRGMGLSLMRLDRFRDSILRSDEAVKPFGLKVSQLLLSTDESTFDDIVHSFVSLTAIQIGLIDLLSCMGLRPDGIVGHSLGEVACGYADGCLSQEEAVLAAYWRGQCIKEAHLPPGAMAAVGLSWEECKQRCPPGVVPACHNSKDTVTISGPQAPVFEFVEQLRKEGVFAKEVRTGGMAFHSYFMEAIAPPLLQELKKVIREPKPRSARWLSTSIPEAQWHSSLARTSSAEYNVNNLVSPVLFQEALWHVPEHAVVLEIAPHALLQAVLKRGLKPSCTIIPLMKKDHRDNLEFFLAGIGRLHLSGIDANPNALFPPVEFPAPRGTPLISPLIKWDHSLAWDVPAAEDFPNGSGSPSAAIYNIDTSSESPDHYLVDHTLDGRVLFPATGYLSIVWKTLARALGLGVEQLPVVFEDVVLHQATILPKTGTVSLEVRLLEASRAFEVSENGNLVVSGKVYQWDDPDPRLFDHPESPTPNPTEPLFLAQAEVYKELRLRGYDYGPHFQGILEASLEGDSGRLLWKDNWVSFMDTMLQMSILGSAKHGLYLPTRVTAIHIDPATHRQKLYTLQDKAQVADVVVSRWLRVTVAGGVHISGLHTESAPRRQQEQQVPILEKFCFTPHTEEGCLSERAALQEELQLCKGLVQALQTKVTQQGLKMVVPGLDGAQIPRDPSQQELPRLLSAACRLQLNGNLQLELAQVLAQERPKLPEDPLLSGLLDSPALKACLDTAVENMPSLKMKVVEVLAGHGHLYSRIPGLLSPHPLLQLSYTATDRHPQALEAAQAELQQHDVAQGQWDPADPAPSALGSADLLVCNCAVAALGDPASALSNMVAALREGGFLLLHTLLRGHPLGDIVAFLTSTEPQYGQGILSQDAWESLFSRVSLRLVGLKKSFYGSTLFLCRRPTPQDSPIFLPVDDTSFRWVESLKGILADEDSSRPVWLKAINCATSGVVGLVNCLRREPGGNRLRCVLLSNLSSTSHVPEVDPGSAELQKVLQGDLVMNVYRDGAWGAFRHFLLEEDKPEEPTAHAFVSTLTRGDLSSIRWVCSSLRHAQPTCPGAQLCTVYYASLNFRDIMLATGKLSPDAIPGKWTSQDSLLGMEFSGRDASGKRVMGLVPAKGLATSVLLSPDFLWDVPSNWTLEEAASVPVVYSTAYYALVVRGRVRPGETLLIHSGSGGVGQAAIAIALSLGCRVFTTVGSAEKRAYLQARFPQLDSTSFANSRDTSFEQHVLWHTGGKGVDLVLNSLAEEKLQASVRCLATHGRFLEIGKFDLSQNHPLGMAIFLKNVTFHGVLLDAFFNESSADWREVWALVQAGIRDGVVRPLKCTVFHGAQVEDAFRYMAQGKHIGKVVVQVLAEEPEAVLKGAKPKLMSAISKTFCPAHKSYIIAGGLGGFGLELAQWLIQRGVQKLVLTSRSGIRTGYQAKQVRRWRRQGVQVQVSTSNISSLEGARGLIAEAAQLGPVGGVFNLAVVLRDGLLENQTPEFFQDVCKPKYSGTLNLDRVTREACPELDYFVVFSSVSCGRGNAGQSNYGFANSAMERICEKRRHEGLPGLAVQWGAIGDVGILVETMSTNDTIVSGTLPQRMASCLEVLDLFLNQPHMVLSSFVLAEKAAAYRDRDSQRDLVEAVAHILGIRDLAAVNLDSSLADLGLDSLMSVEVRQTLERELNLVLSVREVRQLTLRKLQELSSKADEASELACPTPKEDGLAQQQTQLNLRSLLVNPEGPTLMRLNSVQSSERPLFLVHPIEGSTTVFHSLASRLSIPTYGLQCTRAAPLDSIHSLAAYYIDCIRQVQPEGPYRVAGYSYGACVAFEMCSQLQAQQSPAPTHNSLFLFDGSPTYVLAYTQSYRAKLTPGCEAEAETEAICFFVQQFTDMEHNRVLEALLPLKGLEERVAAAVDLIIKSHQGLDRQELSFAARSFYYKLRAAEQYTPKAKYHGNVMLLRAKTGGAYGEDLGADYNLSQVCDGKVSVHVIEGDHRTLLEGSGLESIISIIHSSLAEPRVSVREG
Chain of Neuropeptide Y receptor type 2 (P49146 whole entry): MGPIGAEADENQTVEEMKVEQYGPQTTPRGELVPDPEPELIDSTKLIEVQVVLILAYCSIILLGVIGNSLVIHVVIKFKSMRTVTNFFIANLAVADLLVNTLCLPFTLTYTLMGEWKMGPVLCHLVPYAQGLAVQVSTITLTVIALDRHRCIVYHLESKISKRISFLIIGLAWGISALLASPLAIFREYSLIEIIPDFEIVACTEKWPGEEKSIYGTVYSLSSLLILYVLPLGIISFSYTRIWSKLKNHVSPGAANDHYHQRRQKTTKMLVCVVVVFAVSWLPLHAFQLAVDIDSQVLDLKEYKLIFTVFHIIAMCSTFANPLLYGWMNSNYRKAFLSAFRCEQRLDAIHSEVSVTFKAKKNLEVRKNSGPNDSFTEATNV
Chain of Wee1-like protein kinase (P30291 whole entry): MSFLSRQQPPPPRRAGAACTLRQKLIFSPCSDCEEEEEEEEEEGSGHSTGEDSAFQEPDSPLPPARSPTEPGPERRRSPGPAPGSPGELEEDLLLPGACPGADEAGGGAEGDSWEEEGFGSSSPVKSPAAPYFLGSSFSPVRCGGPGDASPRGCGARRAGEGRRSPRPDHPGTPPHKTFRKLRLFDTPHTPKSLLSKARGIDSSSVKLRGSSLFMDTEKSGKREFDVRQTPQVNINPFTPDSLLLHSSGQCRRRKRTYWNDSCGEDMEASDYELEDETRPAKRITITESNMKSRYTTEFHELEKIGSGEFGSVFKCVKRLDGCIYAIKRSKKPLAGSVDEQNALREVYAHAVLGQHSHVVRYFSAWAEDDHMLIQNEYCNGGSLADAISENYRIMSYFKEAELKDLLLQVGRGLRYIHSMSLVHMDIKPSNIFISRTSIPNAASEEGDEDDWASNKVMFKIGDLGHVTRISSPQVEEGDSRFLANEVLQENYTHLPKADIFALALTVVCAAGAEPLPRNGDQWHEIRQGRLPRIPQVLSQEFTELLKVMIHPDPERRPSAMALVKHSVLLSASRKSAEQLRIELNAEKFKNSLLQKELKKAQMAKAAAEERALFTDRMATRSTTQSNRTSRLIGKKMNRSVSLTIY
Chain of G2/mitotic-specific cyclin-B1 (P14635 whole entry, the tested form may be a part): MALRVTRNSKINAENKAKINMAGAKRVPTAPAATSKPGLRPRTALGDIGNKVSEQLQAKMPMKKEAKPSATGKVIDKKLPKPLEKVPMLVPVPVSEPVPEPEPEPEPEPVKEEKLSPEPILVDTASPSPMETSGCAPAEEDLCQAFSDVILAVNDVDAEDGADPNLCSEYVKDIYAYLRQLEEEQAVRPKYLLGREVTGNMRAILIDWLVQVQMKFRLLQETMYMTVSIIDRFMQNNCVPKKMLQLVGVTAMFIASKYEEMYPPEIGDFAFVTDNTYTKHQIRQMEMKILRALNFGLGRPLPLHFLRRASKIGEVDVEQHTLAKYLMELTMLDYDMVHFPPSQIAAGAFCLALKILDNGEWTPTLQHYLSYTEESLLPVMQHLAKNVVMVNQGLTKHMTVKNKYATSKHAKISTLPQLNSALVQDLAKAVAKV
Chain of Beta Lactamase (Q932Y6 whole entry): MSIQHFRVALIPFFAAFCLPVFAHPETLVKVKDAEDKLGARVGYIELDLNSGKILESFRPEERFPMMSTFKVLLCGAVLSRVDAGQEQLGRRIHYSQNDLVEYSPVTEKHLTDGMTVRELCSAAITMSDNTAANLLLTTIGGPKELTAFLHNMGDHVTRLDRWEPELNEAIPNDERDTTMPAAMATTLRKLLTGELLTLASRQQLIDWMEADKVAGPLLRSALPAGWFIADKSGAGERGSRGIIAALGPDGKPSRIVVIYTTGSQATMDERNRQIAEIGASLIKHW
Chain of Neuropeptide Y receptor type 1 (P25929 whole entry): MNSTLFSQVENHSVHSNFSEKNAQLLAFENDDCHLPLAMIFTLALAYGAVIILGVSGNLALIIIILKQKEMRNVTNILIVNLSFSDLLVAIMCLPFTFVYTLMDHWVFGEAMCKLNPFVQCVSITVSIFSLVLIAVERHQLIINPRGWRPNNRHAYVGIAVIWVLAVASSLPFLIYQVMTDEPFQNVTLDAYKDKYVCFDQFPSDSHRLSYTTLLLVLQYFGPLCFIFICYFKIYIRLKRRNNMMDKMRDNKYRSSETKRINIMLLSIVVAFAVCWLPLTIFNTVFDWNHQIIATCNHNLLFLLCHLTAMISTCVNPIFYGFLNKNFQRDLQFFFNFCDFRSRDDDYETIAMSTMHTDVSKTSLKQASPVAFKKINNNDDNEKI

One may read the AC50 as the concentration giving half of the maximal activity seen. One may read the IC50 as the concentration that inhibits the measured activity by half. One may read the EC50 as the concentration needed to bring the measured effect to its halfway point. For `CC[C@@H](C)[C@H](NC(=O)OC(C)(C)C)c1nnc(S(=O)(=O)Cc2cc(C)ccc2C)o1`, the AC50 in experiment [1] was 15.4 µM (active); in [2] it was 45.1 µM (active); in experiment [4], 4.36 µM (active); in experiment [7], 5.77 µM (active). Also, the IC50 on Fatty acid synthase [3] is 3.33 µM (active); on Beta Lactamase it was 15.2 µM (inactive); in experiment [6], 3.12 µM (active); on Fatty acid synthase [8], 4.12 µM (active). The EC50 in [5] is 16.2 µM (active); in the experiment with Streptococcus [9], 33.5 µM (active); at Streptokinase A it was 3.43 µM (active); in the experiment with Streptococcus [10] it was > 150 µM (not active).
Regarding `COc1ccc(CN2C(=O)/C(=C\Nc3ccccc3C(=O)O)c3ccccc3C2=O)cc1`, the concentration giving a half-maximal response (EC50) in experiment [11] is on record as > 11.8 µM (not active); in experiment [12] it was > 35.4 µM (not active); in the experiment on HEK293, > 35.4 µM (not active). Moreover, the IC50 on Aminopeptidase N is 24.7 µM (active).
Consider `CCOc1cccc(N(C(=O)Cc2cccs2)C(C(=O)NC2CCCCC2)c2cccn2C)c1` (stereo not given), for which the half-maximal effective concentration (EC50) in experiment [13] was 15.1 µM (active); in experiment [14], > 120 µM (not active); in experiment [15] it was > 49.7 µM (not active); at Wee1-like protein kinase it was > 49.7 µM (not active); in experiment [18] it was 19.1 µM (active). The AC50 is 42 µM (active) in [16], 55.9 µM (active) in experiment [17], 24.5 µM (active) in experiment [19] and 6.74 µM (active) in experiment [20].
